Tests used:
[1] = tested on: ApoB-100-associated lipoproteins; assay: Inhibition of the release of ApoB-100-associated lipoproteins from HepG2 cells (immunoassay for human LDL); type: cell-based; settings: light absorption 450 nm vs solvent control
Protocol: The test for detecting inhibition of the release of ApoB-100-associated lipoproteins from liver cells was carried out in vitro using cultured liver cells, preferably using cells of the human line HepG2. These cells are grown under standard conditions in medium for the culture of eucaryotic cells, preferably in RPMI 1640 using 10% foetal calf serum. HepG2 cells synthesize and secrete into the culture supernatant ApoB-100-associated lipoprotein particles which in principle are synthesized in a similar manner to the VLDL and LDL particles which are to be found in the plasma.
These particles can be detected using an immunoassay for human LDL. This immunoassay is carried out using antibodies which have been induced in the rabbit against human LDL under standard conditions. The anti-LDL antibodies (rabbit anti-LDL-Ab) were purified by affinity chromatography on an immunosorbent using human LDL. These purified rabbit anti-LDL Ab are adsorbed on the surface of plastic. Expediently, this adsorption is carried out on the plastic surface of microtitre plates having 96 wells, preferably on MaxiSorp plates. If ApoB-100-associated particles are present in the supernatant of Hep-G2 cells, these can bind to the insolubilized rabbit anti-LDL Ab, and an immune complex is formed which is bound to the plastic surface. Unbound proteins are removed by washing. The immune complex located on the plastic surface is detected using monoclonal antibodies which have been induced against human LDL according to standard conditions and purified. These antibodies were conjugated with the enzyme peroxidase. Peroxidase converts the colourless substrate TMB into a coloured product in the presence of H2 O2. After acidification of the reaction mixture using H2 SO4, the specific light absorption at 450 mn is determined, which is a measure of the amount of ApoB-100-associated particles which have been secreted into the culture supernatant by the HepG2 cells.
The IC50 value indicates at which substance concentration the light absorption is inhibited by 50% in comparison with the control (solvent control without substance).

[2] = tested on: intestinal triglyceride absorption; assay: Inhibition of intestinal triglyceride absorption in vivo (rats); parameters: species or system male Wistar rats; settings: po; for ED50: Rattus norvegicus, serum triglyceride increase 2 h after triglyceride loading, fasting rats, read-out: Absorption ED50 or % inhibition; for Absorption ED50 or % inhibition: 2 h
Protocol: The substances which are to be investigated for their triglyceride absorption-inhibiting action in vivo are administered orally to male Wistar rats having a body weight of between 170 and 230 g. For this purpose, the animals are divided into groups of 6 animals 18 hours before administration of the substance and the feed is then withdrawn from them. Drinking water is available to the animals ad libitum. The animals of the control groups receive an aqueous tragacanth suspension or a tragacanth suspension which contains olive oil. The tragacanth-olive oil suspension is prepared using an Ultra-Turrax. The substances to be investigated are suspended directly before substance administration in a corresponding tragacanth-olive oil suspension, also using an Ultra-Turrax.
Before stomach tube application, blood is taken from each rat by puncture of the retroorbital venous plexus to determine the basal serum triglyceride content. The tragacanth suspension, the tragacanth-olive oil suspensions without substance (control animals) and the substances suspended in a corresponding tragacanth-olive oil suspension are then administered to the fasting animals using a stomach tube. Further taking of blood for the determination of the postprandial serum triglyceride rise is carried out, as a rule, 1,2 and 3 hours after stomach tube application.
The blood samples are centrifuged and, after recovering the serum, the triglycerides are determined photometrically using an EPOS analyzer 5060 (Eppendorf Geratebau, Netheler & Hinz GmbH, Hamburg). The triglycerides are determined by fully enzymatic means using a commercially available UV test.
The postprandial serum triglyceride increase is determined by subtraction of the triglyceride preliminary value of each animal from its corresponding postprandial triglyceride concentrations (1,2 and 3 hours after administration).
The differences (in mmol/l) at each time 1, 2 and 3 hours) are averaged in the groups, and the average values of the serum triglyceride increase (ΔTG) of the substance-treated animals are compared with the animals which only received the tragacanth-oil suspension.
Likewise, the serum triglyceride course of the control animals which received only tragacanth is calculated. The substance effect at each time (1, 2 or 3 hours) is determined as follows and given in Δ% of the oil-loaded control. [formula]
Effect of 10 mg of test substance/kg of body weight p.o. on the triglyceride increase (Δ%) 2 h after a triglyceride loading in the serum of fasting rats. The serum triglyceride increase of fat-loaded control animals based on the serum triglyceride level of tragacanth control animals corresponds to 100%. n=6 animals per group.
Statistical assessment was carried out using student3 s t test after prior checking of the variances for homogeneity.

VLDL secretion = assay: Inhibition of VLDL secretion in vivo (rat) (Triton rat); settings: for inhibition in vivo at 3 mg/kg: (n.s.) for 112, 114, 117, 154, 175, 176, 227, read-out: Triton rat % TG inhibition (p.o.) 2 h after substance
Protocol: The action of the test substances on VLDL secretion is also investigated in the rat. To do this, 500 mg/kg of body weight (2.5 ml/kg) of Triton WR-1339, dissolved in physiological saline solution, are administered to rats intravenously in the tail vein. Triton WR-1339 inhibits lipoprotein lipase and thus leads through inhibition of VLDL catabolism to an increase in the triglyceride and cholesterol level. These increases can be used as a measure of the VLDL secretion rate.
Blood is taken from the animals before and one and two hours after administration of the detergent by puncture of the retroorbital venous plexus. The blood is incubated at room temperature for 1 h for clotting and the serum is recovered by centrifugation at 10,000 g for 20 s. The triglycerides are then determined photometrically at a wavelength of 540 nm by means of a commercially available coupled enzyme test (Sigma Diagnostics®, No. 339). Measurement is carried out with the aid of a likewise coupled enzyme test (Boehringer Mannheim®, No. 1442350) at a wavelength of 546 nm. Samples with triglyceride or cholesterol concentrations which exceed the measuring range of the methods are diluted with physiological saline solution. The respective serum concentrations are determined with the aid of standard series measured in parallel. Test substances are administered orally, intravenously or subcutaneously immediately after the Triton injection.

[3] = Rattus norvegicus, po, 2 h, 3 mg/kg p.o.
[4] = Homo sapiens, HepG2, HepG2 cells

Structure (SMILES) | IC50 [1, 4] | inhibition in vivo at 3 mg/kg (VLDL secretion; [3]) | Absorption ED50 or % inhibition [2] | also measured
Cn1c(=O)c2c(nc(-c3ccccc3)n2Cc2ccc(C(C(=O)N[C@@H](CO)c3ccccc3)C3CCCC3)cc2)n(C)c1=O (single isomer, unassigned) [Example 130] |  |  |  | IC50 ([1]; HepG2 cells): 25 nM; ED50 [2]: 5 mg/kg; inhibition in vivo at 20 mg/kg (VLDL secretion; Rattus norvegicus, po, 2 h, 20 mg/kg p.o., read-out: Triton rat % TG inhibition (p.o.) 2 h after substance): 36%
Cn1c(=O)c2c(ncn2Cc2ccc(C(C(=O)N[C@@H](CO)c3ccccc3)C3CCCC3)cc2)n(C)c1=O (single isomer, unassigned) [Example 114] |  | 14.1% |  | IC50 ([1]; HepG2 cells): 39 nM; ED50 [2]: < 2 mg/kg
Cn1c(=O)c2c(nc(Cc3ccccc3)n2Cc2ccc(C(C(=O)N[C@@H](CO)c3ccccc3)C3CCCCCC3)cc2)n(C)c1=O (single isomer, unassigned) [Example 176] |  |  |  | IC50 ([1]; HepG2 cells): 19 nM; Triton rat % TG inhibition (p.o.) 2 h after substance (VLDL secretion; 3 mg/kg p.o., (n.s.) for 112, 114, 117, 154, 175, 176, 227): 6.2%
Cn1c(=O)c2c(nc(Cc3ccccc3)n2Cc2ccc(C(C(=O)N[C@@H](CO)c3ccccc3)C3CCCC3)cc2)n(C)c1=O (single isomer, unassigned) [Example 169] |  | 28% | 2 mg/kg | IC50 ([1]; HepG2 cells): 3 nM; inhibition in vivo at 5 mg/kg (VLDL secretion; Rattus norvegicus, po, 2 h, 5 mg/kg p.o., read-out: Triton rat % TG inhibition (p.o.) 2 h after substance): 41%; inhibition in vivo at 10 mg/kg (VLDL secretion; Rattus norvegicus, po, 2 h, 10 mg/kg p.o., read-out: Triton rat % TG inhibition (p.o.) 2 h after substance): 59.4%
Cn1c(=O)c2c(nc(CCc3ccccc3)n2Cc2ccc(C(C(=O)N[C@@H](CO)c3ccccc3)C3CCCC3)cc2)n(C)c1=O (stereo partly drawn) [Example 227, 2-(R&S)-Cyclopentyl-2-[4-(1,3-dimethyl-2,6-dioxo-8-(2-phenyl-ethyl)-1,2,3,6-tetra-hydro-purin-7-yl-methyl)phenyl]acet-N-[1-(R)-1-phenyl-2-hydroxy-ethyl)amide] | 40 nM | -8% | > 6 mg/kg | 
Cn1c(=O)c2c(nc(Br)n2Cc2ccc(C(C(=O)N[C@@H](CO)c3ccccc3)C3CCCC3)cc2)n(C)c1=O (single isomer, unassigned) [Example 117] |  | 25% |  | IC50 ([1]; HepG2 cells): 3 nM; ED50 [2]: 3 mg/kg
Cn1c(=O)c2c(nc(-c3cccs3)n2Cc2ccc(C(C(=O)N[C@@H](CO)c3ccccc3)C3CCCC3)cc2)n(C)c1=O (stereo partly shown) [Example 157] | 8 nM | 11.3% | > 2 mg/kg | 
COc1ccc(Cc2nc3c(c(=O)n(C)c(=O)n3C)n2Cc2ccc(C(C(=O)N[C@@H](CO)c3ccccc3)C3CCCC3)cc2)cc1 (stereo partly shown) [Example 201] | 11 nM |  | > 3 mg/kg | 
Cn1c(=O)c2c(nc(C=Cc3ccccc3)n2Cc2ccc(C(C(=O)N[C@@H](CO)c3ccccc3)C3CCCC3)cc2)n(C)c1=O (stereo partly shown) [Example 167] | 19 nM |  | > 2 mg/kg | 
Cn1c(=O)c2c(nc(-c3ccc(Cl)cc3)n2Cc2ccc(C(C(=O)N[C@@H](CO)c3ccccc3)C3CCCC3)cc2)n(C)c1=O (stereo partly shown) [Example 140] | 10 nM |  | > 3 mg/kg | 
Cn1c(=O)c2c(nc(Cc3ccccc3)n2Cc2ccc(C(C(=O)N[C@@H](CO)c3ccccc3)C3CCCCCC3)cc2)n(C)c1=O (single isomer, unassigned) [Example 175] | 32 nM | 9.8% |  | 
Cc1ccc(-c2nc3c(c(=O)n(C)c(=O)n3C)n2Cc2ccc(C(C(=O)N[C@@H](CO)c3ccccc3)C3CCCC3)cc2)cc1 (single isomer, unassigned) [Example 136] |  | 28% | 2 mg/kg | IC50 ([1]; HepG2 cells): 23 nM
CN(C)c1ccc(-c2nc3c(c(=O)n(C)c(=O)n3C)n2Cc2ccc(C(C(=O)N[C@@H](CO)c3ccccc3)C3CCCC3)cc2)cc1 (stereo partly shown) [Example 149] | 9 nM |  | > 3 mg/kg | 
Cc1ccccc1Cc1nc2c(c(=O)n(C)c(=O)n2C)n1Cc1ccc(C(C(=O)N[C@@H](CO)c2ccccc2)C2CCCC2)cc1 (stereo partly shown) [Example 178] | 64 nM |  | 3 mg/kg | 
Cn1c(=O)c2c(nc(-c3ccc(C(F)(F)F)cc3)n2Cc2ccc(C(C(=O)N[C@@H](CO)c3ccccc3)C3CCCC3)cc2)n(C)c1=O (stereo partly shown) [Example 143] | 11 nM |  | > 3 mg/kg | 

More lines, in order of falling IC50 [1, 4], values ahead:

IC50 [1, 4] | Structure (SMILES) | inhibition in vivo at 3 mg/kg (VLDL secretion; [3]) | Absorption ED50 or % inhibition [2] | also measured
8 nM | Cn1c(=O)c2c(nc(CC3CCCCC3)n2Cc2ccc(C(C(=O)N[C@@H](CO)c3ccccc3)C3CCCC3)cc2)n(C)c1=O (stereo partly shown) [Example 123] |  |  | ED50 [2]: 2 mg/kg
6 nM | COc1ccc(-c2nc3c(c(=O)n(C)c(=O)n3C)n2Cc2ccc(C(C(=O)N[C@@H](CO)c3ccccc3)C3CCCC3)cc2)cc1 (stereo partly shown) [Example 146] |  | > 3 mg/kg | 
5 nM | Cn1c(=O)c2c(nc(Cc3ccccc3)n2Cc2ccc(C(C(=O)N[C@@H](CO)c3ccccc3)C3CCCCCC3)cc2)n(C)c1=O (stereo partly shown) [Example 174] |  | < 2 mg/kg | 
5 nM | Cc1cccc(Cc2nc3c(c(=O)n(C)c(=O)n3C)n2Cc2ccc(C(C(=O)N[C@@H](CO)c3ccccc3)C3CCCC3)cc2)c1 (stereo partly shown) [Example 179] |  | > 3 mg/kg | 
5 nM | Cc1ccsc1-c1nc2c(c(=O)n(C)c(=O)n2C)n1Cc1ccc(C(C(=O)N[C@@H](CO)c2ccccc2)C2CCCC2)cc1 (stereo partly shown) [Example 160] |  | 3 mg/kg | 
4 nM | Cc1ccc(-c2nc3c(c(=O)n(C)c(=O)n3C)n2Cc2ccc(C(C(=O)N[C@@H](CO)c3ccccc3)C3CCCC3)cc2)cc1 (stereo partly shown) [Example 112] | 17% |  | ED50 [2]: 3 mg/kg
3 nM | Cn1c(=O)c2c(nc(-c3ccsc3)n2Cc2ccc(C(C(=O)N[C@@H](CO)c3ccccc3)C3CCCC3)cc2)n(C)c1=O (stereo partly shown) [Example 154] | -4% | < 2 mg/kg | 

Reference: patent US5714494A, “Xanthines in the 7th position with a benzyl acetic acid moiety” (Bayer Aktiengesellschaft, priority 1995, dated 1998)
